Data on 18 compounds can be found in patent US11098029B2, “5-alkyl pyrrolidine orexin receptor agonists” (Merck Sharp & Dohme Corp., priority 2019, dated 2021).

For this assay, the target named is human OX2R (Homo sapiens (Human), UniProt O43614). Nature of the assay: IPOne (IP-One, Cisbio) orexin receptor agonist assay in CHO cells expressing human OX2R. Conditions: for Emax (%) / Emax: hOX2R_IP, percentage of mean max effect of a reference compound at 1 uM (100% activity vs Orexin A); for Emax: CHO.
Sequence of human OX2R (O43614 whole entry): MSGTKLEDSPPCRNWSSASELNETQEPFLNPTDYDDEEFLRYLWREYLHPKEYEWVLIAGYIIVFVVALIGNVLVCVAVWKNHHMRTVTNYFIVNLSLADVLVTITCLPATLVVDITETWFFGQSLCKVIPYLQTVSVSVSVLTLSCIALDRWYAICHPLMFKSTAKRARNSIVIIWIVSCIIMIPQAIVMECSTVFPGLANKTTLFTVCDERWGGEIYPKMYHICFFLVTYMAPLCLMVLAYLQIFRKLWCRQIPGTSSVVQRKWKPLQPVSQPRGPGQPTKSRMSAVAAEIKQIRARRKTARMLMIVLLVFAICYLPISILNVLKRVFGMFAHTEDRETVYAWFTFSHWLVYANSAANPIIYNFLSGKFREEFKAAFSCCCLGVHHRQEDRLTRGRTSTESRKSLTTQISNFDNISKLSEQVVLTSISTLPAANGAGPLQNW

Regarding `C[C@@H]1C[C@H](NS(=O)(=O)N(C)C)[C@H](CO[C@H]2CC[C@@H](c3ccccc3)CC2)N1C(=O)OCC(F)F` [Example 17, 2,2-difluoroethyl (2R,3S,5R)-3-((N,N-dimethylsulfamoyl)amino)-5-methyl-2-((((1s,4S)-4-phenylcyclohexyl)oxy)methyl)pyrrolidine-1-carboxylate], the “Emax (%)” value is 102%. `COC(=O)N1[C@H](C)C[C@H](NS(=O)(=O)N(C)C)[C@@H]1CO[C@H]1CC[C@@H](c2ccccc2)CC1` [Example 19, methyl (2R,3S,5R)-3-((N,N-dimethylsulfamoyl)amino)-5-methyl-2-((((1s,4S)-4-phenylcyclohexyl)-oxy)methyl)pyrrolidine-1-carboxylate]: the “Emax (%)” value is on record as 100%. In turn, `COC(=O)N1[C@H](C)C[C@H](NS(C)(=O)=O)[C@@H]1CO[C@H]1CC[C@@H](c2cc(F)ccc2F)CC1` [Example 20, methyl (2R,3S,5R)-2-((((1r,4R)-4-(2,5-difluorophenyl)cyclo-hexyl)oxy)methyl)-5-methyl-3-(methylsulfona-mido)pyrrolidine-1-carboxylate] showed an Emax of 102%. In turn, `COC(=O)N1[C@H](C)C[C@H](NS(=O)(=O)N(C)C)[C@@H]1CO[C@H]1CC[C@@H](c2cc(F)ccc2F)CC1` [Example 21, methyl (2R,3S,5R)-2-((((1R,4R)-4-(2,5-difluorophenyl)cyclohexyl)oxy)methyl)-3-((N,N-dimethylsulfa-moyl)amino)-5-methylpyrrolidine-1-carboxylate] had an Emax of 101%. On to `C[C@@H]1C[C@H](NS(=O)(=O)N(C)C)[C@H](CO[C@H]2CC[C@@H](c3cc(F)ccc3F)CC2)N1C(=O)OCC(F)F` [Example 22, 2,2-difluoroethyl (2R,3S,5R)-2-((((1r,4R)-4-(2,5-difluorophenyl)-cyclohexyl)oxy)methyl)-3-((N,N-dimethylsulfamoyl)amino)-5-methylpyrrolidine-1-carboxylate], for which the Emax is 100%.

Compound `COC(=O)N1[C@H](C)C[C@H](NS(=O)(=O)N(C)C)[C@@H]1CO[C@H]1CC[C@@H](c2ccccc2F)CC1` [Example 23, methyl (2R,3S,5R)-3-((N,N-dimethylsulfamoyl)amino)-2-((((1s,4S)-4-(2-fluorophenyl)cyclohexyl)oxy)methyl-5-methylpyrrolidine-1-carboxylate] registered an Emax of 97%. As to `COC(=O)N1[C@H](C)C[C@H](NS(=O)(=O)CF)[C@@H]1CO[C@H]1CC[C@@H](c2cccc(F)c2)CC1` [Example 26, methyl (2R,3S,5R)-3-((fluoromethyl)sulfonamido)-2-((((1s,4S)-4-(3-fluorophenyl)cyclohexyl)oxy)methyl)-5-methylpyrrolidine-1-carboxylate], the Emax stood at 98% and the “Emax (%)” value came out at 102%.

In turn, `COC(=O)N1[C@H](C)C[C@H](NS(C)(=O)=O)[C@@H]1CO[C@H]1CC[C@@H](c2ccccc2C(F)(F)F)CC1` [Example 27, methyl (2R,3S,5R)-5-methyl-3-(methylsulfonamido)-2-((((1r,4R)-4-(2-(trifluorometh-yl)phenyl)cyclohexyl)oxy)methyl)pyrrolidine-1-carboxylate] registered an Emax of 100%.

In the case of `COC(=O)N1[C@H](C)C[C@H](NS(C)(=O)=O)[C@@H]1CO[C@H]1CC[C@@H](c2c(F)ccc(F)c2F)CC1` [Example 28, methyl (2R,3S,5R)-5-methyl-3-(methylsulfonamido)-2-((((1r,4R)-4-(2,3,6-trifluorophenyl)-cyclohexyl)oxy)methyl)pyrro-lidine-1-carboxylate], the Emax was determined as 102%.

Consider `COC(=O)N1[C@H](C)C[C@H](NS(=O)(=O)CF)[C@@H]1CO[C@H]1CC[C@@H](c2ccccc2)CC1` [Example 29, methyl (2R,3S,5R)-3-((fluoromethyl)sulfonamido)-5-methyl-2-((((1r,4R)-4-phenylcyclohexyl)oxy)meth-yl)pyrrolidine-1-carboxylate], for which the Emax is 102%. Turning to `COC(=O)N1[C@H](C)C[C@H](NS(=O)(=O)N(C)C)[C@@H]1CO[C@@H]1CC[C@H](c2ccccc2)CC1F` (stereo partly drawn) [Example 30, methyl (2R,3S,5R)-3-((N,N-dimethylsulfamoyl)amino)-2-((((1R,4S)-2-fluoro-4-phenylcyclohexyl)oxy)methyl)-5-methylpyrrolidine-1-carboxylate], the Emax stood at 100%. `COC(=O)N1[C@H](C)C[C@H](NS(=O)(=O)N(C)C)[C@@H]1CO[C@@H]1CC[C@H](c2cccc(F)c2)CC1F` (stereo partly drawn) [Example 31, methyl (2R,3S,5R)-3-((N,N-dimethylsulfamoyl)amino)-2-((((1R,4S)-2-fluoro-4-(3-fluorophenyl)cyclohexyl)oxy)methyl)-5-methylpyrrolidine-1-carboxylate] displayed an Emax of 100%. For `COC(=O)N1[C@H](C)C[C@H](NS(=O)(=O)N(C)C)[C@@H]1CO[C@H]1CC[C@@H](c2cc(F)cc(F)c2)CC1` [Example 32, methyl (2R,3S,5R)-2-((((1s,4S)-4-(3,5-difluorophenyl)cyclohexyl)oxy)methyl)-3-((N,N-dimethylsulfamoyl)amino)-5-methylpyrrolidine-1-carboxylate], the Emax is 101%. The compound `COC(=O)N1[C@H](C)C[C@H](NS(C)(=O)=O)[C@@H]1COC1CCC(c2ccccc2)CC1OC` (stereo partly drawn) [Example 33, methyl (2R,3S,5R)-2-(((2-methoxy-4-phenylcyclohexyl)oxy)methyl)-5-methyl-3-(methylsulfonamido)pyrrolidine-1-carboxylate] returned an IC50 of 2150 nM and an Emax of 92%.

Turning to `COC(=O)N1[C@H](C)C[C@H](NS(C)(=O)=O)[C@@H]1COC1CCC(c2ccccc2)CC1C` (stereo partly drawn) [Example 34, methyl (2R,3S,5R)-5-methyl-2-(((2-methyl-4-phenylcyclohexyl)oxy)methyl)-3-(methylsulfonamido)pyrrolidine-1-carboxylate], the IC50 is 37.5 nM and the Emax amounted to 99%. Turning to `COC(=O)N1[C@H](C)C[C@H](NS(=O)(=O)N(C)C)[C@@H]1CO[C@@H]1CC=C(c2cccc(F)c2)CC1` [Example 35, methyl (2R,3S,5R)-3-((N,N-dimethylsulfamoyl)amino)-2-((((S)-3′-fluoro-2,3,4,5-tetrahydro-[1,1′-biphenyl]-4-yl)oxy)methyl)-5-methylpyrrolidine-1-carboxylate], the 50% inhibitory concentration (IC50) was 12.5 nM and the Emax is 102%. With `COC(=O)N1[C@H](C)C[C@H](NS(=O)(=O)N(C)C)[C@@H]1CO[C@H]1CCC(c2cccc(F)c2)C(O)C1` (stereo partly drawn) [Example 36, methyl (2R,3S,5R)-3-((N,N-dimethylsulfamoyl)amino)-2-((((1S)-4-(3-fluorophenyl)-3-hydroxycyclohexyl)oxy)methyl)-5-methylpyrrolidine-1-carboxylate], the IC50 was 0.76 nM and the Emax was found to be 99%. For the compound `CNS(=O)(=O)N[C@H]1C[C@@H](C)N(C(=O)OC(C)C)[C@H]1COC1CCN(c2ncccn2)CC1` [Example 38, isopropyl (2R,3S,5R)-5-methyl-3-((N-methylsulfamoyl)amino)-2-(((1-(pyrimidin-2-yl)piperidin-4-yl)oxy)methyl)pyrrolidine-1-carboxylate], the IC50 was determined as 7.07 nM and the Emax is 100%.

As a reminder, the Emax is the maximal effect, on the per cent scale that the assay sets. One may read the IC50 as the concentration at which inhibition is half-maximal. Low values mean higher potency, high ones lower potency.
